Experimental findings from a melting point compilation (Tetko et al.; mined from patent text by program, amines drawn as free bases though some values may be those of a salt) are described below.

One may read the melting point as the temperature, or range, at which the solid turns liquid.

Regarding `CN(C)c1ccc(NC(=O)c2cc3cc(C(F)(F)F)ccc3n2Cc2cccc(F)c2)cn1`, the melting point was 192 to 193 °C.
The same measure for `NC(=O)C1CCN(C(c2ccccc2)c2ccccc2)CC1`: 150 °C; for `Cc1[nH]c(C=NNC(=O)c2ccc(O)cc2)c(C)c1Br`: 235 °C; for `O=C(NC(=O)c1c(Cl)cccc1Cl)Nc1noc(-c2ccc(C(F)(F)F)cc2)c1Cl`: 237 to 238 °C.
The compound `O=C(O)Cc1ccccc1N1CCOCC1` gave a melting point of 128 °C.
The value for `O=C(O)c1sc(-c2ccc(C(F)(F)F)cc2)nc1C(F)(F)F` was 177 to 179 °C; that for `COP(=O)(OC)[C@H](C)NC(=O)[C@H](C)NC(=O)[C@H](C)NC(=O)CNC(=O)OCc1ccccc1` was 162 to 164 °C; that for `Cn1ccc(C(=O)c2ccc(Cc3ccc(F)cc3)o2)c(O)c1=O` was 145 to 147 °C.
In turn, `COc1ccccc1NC(=O)c1ccccc1SSc1ccccc1C(=O)Nc1ccccc1OC` returned a melting point of 154 to 155 °C.
The value for `C#CCNC(=S)NC1CCC(=O)c2sccc21` (configuration not stated) was 130 to 136 °C.
In turn, `COc1ccc(N2CCN(c3ccc(Nc4nc(-c5ccccc5)cs4)cc3)CC2)cc1` displayed a melting point of 270 °C.
The same measure for `COC(=O)c1sc(C)c2ncn(Cc3ccc(-c4ccccc4-c4nnn[nH]4)cc3)c12`: 188 to 189 °C.
The compound `COCCNC(=O)c1cccc(-c2cccc3cc(COc4cc(C(F)(F)F)ccn4)sc23)c1` displayed a melting point of 186 to 187 °C.
As to `O=C(O)CCCCOc1cccc(CNC(=O)C2Cc3ccccc3N2S(=O)(=O)c2ccc(-c3cccc(C(F)(F)F)c3)cc2)c1` (configuration not stated), the melting point turned out to be 70 °C.
`Cc1ccccc1OCc1ccccc1N` showed a melting point of 56 °C.
The same measure for `CCCCc1nc(=O)c2cc(C(C)(C)O)ccc2[nH]1`: 190 to 192 °C; for `CCOC(=O)Cn1c(C)cnc(NCC(F)(F)c2ccccc2)c1=O`: 106 to 110 °C; for `Nc1cccc(-c2nc3ncccc3o2)c1`: 179 to 180 °C.
The same measure for `COC(=O)c1ccc(Cn2cc(C=C3C(=O)NC(=O)NC3=O)c3ccccc32)cc1`: greater than 300 °C.
The value for `O=C(CCCc1ccccc1)N[C@H](Cc1ccc(F)cc1)[C@@H](O)c1ccc(F)cc1` (racemic) was 147 to 148 °C; that for `CCOCc1nc2cnc3cc(O)ccc3c2n1CC1COC(C)(C)O1` (configuration not stated) was 239 to 240 °C; that for `CCOC(=O)C=CC(=O)N(CC(C)(C)C)c1sc(Cl)cc1C(=O)c1ccccc1Cl` was 79 to 81 °C.
Turning to `Cc1sc2c(c1CCN1CCC(c3noc4cc(F)ccc34)CC1)CCNC2`, the melting point was 88 to 90 °C.
On to `OC(COCc1cccnc1)c1ccc2occc2c1` (configuration not stated), for which the melting point lay in the range of 85 to 86 °C.
The same measure for `CC(=O)NCCOc1cc(N)c(Cl)cc1C(=O)NCCN(C)C`: 143 to 145 °C; for `CCCc1cc(COc2cc(CC)nc(C)c2OC)ccc1-c1ccccc1S(=O)(=O)Nc1noc(C)c1C`: 63 to 65 °C; for `CC(=O)N[C@H](C(=O)N1C[C@@H]2C(=O)CCC(c3ccccc3)(c3ccccc3)[C@@H]2C1)c1ccccc1`: 190 °C.
The value for `CC(C)[C@H](C[C@H](N=[N+]=[N-])[C@@H]1C[C@@H](C(C)C)C(=O)O1)C(=O)O` was 56 to 58 °C; that for `C=CCN(C(=O)NC(C)(C)C)c1nc(NC(=O)NC(C)(C)C)c2cc([N+](=O)[O-])ccc2n1` was 105 to 106 °C.
For the compound `CC(C)c1cc(O)cc2nc(-c3ccc(O)cc3)oc12`, the melting point stood at 200 °C.
The same measure for `CCNC(=O)Nc1ccc(-c2ccc3nnn(Cc4ccc5ncccc5c4)c3n2)cc1`: 193 to 196 °C.
The same measure for `CC(C)OC(=O)c1cc(NC(=S)OC(C)C)ccc1Cl`: 89 °C.
The same measure for `CS(=O)(=O)Nc1cc(F)c(Cl)cc1I`: 123 to 124 °C; for `COc1cc2ccc3c(OC)cccc3c2c(OC)c1OC`: 80 to 82 °C.
`CCCCNC(=O)Nc1ccc(C)cc1`: the melting point is 118 to 119 °C.
The value for `O=C1CCCN1C1=NC(CF)(CF)Oc2ccc([N+](=O)[O-])cc21` was 195 to 198 °C; that for `C[Si](C)(C)CCOC(=O)c1cccc2nnsc12` was 37 to 39 °C; that for `COc1cc(C(C)C)ccc1C1(O)C(=O)c2c(NC(C)=O)ccc([N+](=O)[O-])c2C1=O` (configuration not stated) was 110 to 115 °C.
Compound `O=[N+]([O-])c1ccc(CN2CCc3ccccc32)cc1` returned a melting point of 95 to 97 °C.
Regarding `CCCNC(=O)c1cccc(-c2nc(=O)c3ccccc3s2)n1`, the melting point is 180 to 181 °C.
The value for `CN(Cc1ccccc1)Cc1c(-c2ccc(N)cc2)sc2c1c(=O)c(C(=O)c1ccccc1)cn2Cc1c(F)cccc1F` was 126 to 128 °C; that for `CCc1cc(NC(=O)N2CCN(c3cc(OC)cc(OC)c3)CC2)c(N2CCNCC2)nc1C` was 68 to 70 °C; that for `O=Cc1ccc(OCc2ccccc2)c2c1OCO2` was 81 to 82 °C.
Compound `O=C(Nc1ccc2c(c1)CCSC2)OCc1ccccc1` showed a melting point of 116 to 118 °C.
The value for `CCn1cc(C(N)=O)c(=O)c2ccc(-c3ccncc3)cc21` was greater than 300 °C; that for `COC(=O)c1ccc(C(=O)N(SSN(C(=O)c2ccc(C(=O)OC)cc2)c2ccccc2)c2ccccc2)cc1` was 276 to 278 °C.
The value for `CCN(CC)c1ccc(C(=O)c2c(Cl)c(Cl)c(Cl)c(Cl)c2C(=O)O)c(C)c1` was 179 to 181 °C; that for `CC(C)(C)N=NC(C)(C)C#N` was 17 °C; that for `O=CN1CCN(C2=C(Cl)C(=O)c3nsnc3C2=O)CC1` was 191 to 194 °C.
In turn, `O=C(NC(CC1CCCC1)C(=O)NC1CCCN(S(=O)(=O)c2ccccc2)CC1=O)c1ccco1` (configuration not stated) returned a melting point of 88 to 90 °C.
The value for `CC1(C)C(=O)N(c2ccc([N+](=O)[O-])c(C(F)(F)F)c2)C(=O)N1CCCCN1C(=O)N(c2ccc([N+](=O)[O-])c(C(F)(F)F)c2)C(=O)C1(C)C` was 211 to 212 °C.
The compound `NC(=O)c1cc2cc(Cl)ccc2o1` showed a melting point of 200 to 202 °C.
For `CC(=O)NCc1nc(-c2ccccc2)c(-c2ccccc2)o1`, the melting point fell in the range of 58 to 60 °C.
`Fc1ccc(-c2cccs2)cc1` displayed a melting point of 51 to 52 °C.
The value for `CCCCCCCCCCCCCCc1onc(C(=O)OC)c1O` was 92 °C.
The value for `CS(=O)(=O)NC1CCN(C(=O)Cn2nc(-c3ccncc3)cc2Cc2ccc(F)cc2)CC1` was 128 to 139 °C; that for `NCCc1ccc(C=Cc2ccccc2)cc1` was 141 to 156 °C.
The same measure for `CS(=O)(=O)c1ccc(C(=O)O)c(C(F)(F)F)c1F`: 250 to 252 °C.
As for `CCOC(=O)[C@H](CC(C)C)SC[C@H](O)[C@H](CC1CCCCC1)NC(=O)[C@H](Cc1c[nH]cn1)NC(=O)[C@H](Cc1ccccc1)NC(=O)OC(C)(C)C`, the melting point is greater than 82 °C.
`CCN(CC)C(=O)CNC1(c2ccccc2Cl)C(=O)Nc2ccc(Cl)cc21` (configuration not stated): the melting point is 223 °C.
On to `C#CCOc1ccc([N+](=O)[O-])cc1`, for which the melting point was in the range of 108 to 110 °C.
The same measure for `Cc1ccc(-c2ccc3c(c2)C=C(C(=O)Nc2ccc(CN4CCCCC4)cc2)CCC3)cc1`: 192 to 193 °C.
The value for `O=C(Cc1ccccc1Nc1c(Cl)cccc1Cl)NO` was 164 to 165 °C; that for `Cc1cc(O)c(SC23CC4CC(CC(C4)C2)C3)c(=O)o1` was 176 °C; that for `O=C(CCN1CCC(C(O)(c2ccc(F)cc2)c2ccc(F)cc2)CC1)N(c1ccccc1)c1ccccc1` was 160 to 162 °C.
In turn, `CC(C)c1nc(COCc2ccccc2)n(Cc2cnc3ccccc3c2)c1Sc1cc(Cl)cc(Cl)c1` came in with a melting point of 95 to 98 °C.
`Cc1nnc(NCCCN2CCCC2=O)c2c1cc1ccccn12` returned a melting point of 257 to 258 °C.
The same measure for `Cc1nccn1CC1CCc2c(c3ccccc3n2C)/C1=N/OC(=O)c1cccc(C#N)c1` (configuration not stated): 160 to 166 °C.
Regarding `COCCOC/C(=C\S(=O)(=O)c1ccc(C)cc1)C(=O)OC(C)(C)C`, the melting point was 40 to 41 °C.
The value for `COC(=O)C(C)(COS(C)(=O)=O)C(=O)c1ccc(Cl)cc1` (configuration not stated) was 85 to 86 °C; that for `ClCc1cccc2nnsc12` was 78 to 80 °C; that for `O=COC(Cc1ccccc1)C1C(=O)NC1SC(c1ccccc1)(c1ccccc1)c1ccccc1` (configuration not stated) was 169 to 171 °C.
With `COC(=O)c1cccc([N+](=O)[O-])c1Cl`, the melting point lay within 68 to 70 °C.
The compound `C[C@@H]1Cc2cc3c(cc2C(c2ccc([N+](=O)[O-])c(Cl)c2)=NN1)OCO3` yielded a melting point of 165 to 170 °C.
Compound `CC(=O)Nc1ccc2c3c(cccc13)S(=O)(=O)C(C)N2` (configuration not stated) displayed a melting point of 189 to 190 °C.
The same measure for `O=C1NCCc2c(-c3cccc(Oc4ccc(F)cc4)c3)[nH]c3cccc1c23`: 240 to 241 °C; for `CCn1c(=O)sc2cc(C(c3ccc([N+](=O)[O-])cc3)n3cncn3)ccc21` (configuration not stated): 79 to 83 °C; for `COC(=O)C1(CCCCCCCCCCCCC2(C(=O)NS(C)(=O)=O)CC2)CC1`: 53.5 to 54.5 °C.
The same measure for `NC(=O)c1ccc(F)c(F)c1Cl`: 142 to 143 °C; for `O=C(O)CCc1cn(Cc2ccc(OCc3ccoc3)cc2)cc1-c1ccccc1`: 110 to 111 °C.
In turn, `S=C(Nc1ccccc1)Nc1ncccc1OCc1ccccc1` had a melting point of 107 to 109 °C.
The value for `C=C(C)C(=O)OCCC#Cc1ccc(-c2ccc(OC(=O)C(=C)C)cc2)cc1` was 80 °C; that for `CCCN(CCC)c1ccc(S(=O)(=O)N2CCCCC2=O)cc1` was 105 to 108 °C.
Turning to `COc1ccccc1-c1cc(NC(=O)[C@H]2CCCNC2)ncn1`, the melting point lay within 163 to 165 °C.
On to `COC(=O)C=Cc1ccc(Br)nc1`, for which the melting point worked out at 150 °C.
`COc1nc(C(F)(F)F)cc(=O)n1-c1ccc(Cl)c(C(=O)O)c1` gave a melting point of 265 to 268 °C.
`CC(C)(C)OC(=O)[C@@H]1CC[C@@H]2CN1C(=O)N2OCc1ccccc1` returned a melting point of 83 °C.
